Values of other authors as cited in patent US20080044468A1, “Processes For The Preparation Of Oral Dosage Formulations Of Modafinil” (priority 2002, published 2008).

Settings: background statement

NC(=O)C[S+]([O-])C(c1ccccc1)c1ccccc1 (stereo not shown) [modafinil]
Solubility in water: less than 1 mg/ml
